This is an account of results in ChEMBL document CHEMBL1146758, “Design, synthesis and structure-activity relationship studies of novel indazole analogues as DNA gyrase inhibitors with Gram-positive antibacterial activity” (Bioorg Med Chem Lett, 2004).

In brackets after ≈: the same amount, converted by molar mass. Some results are limits rather than exact numbers.

The target of one experiment is DNA gyrase (Escherichia coli, UniProt P0AES4+P0AES6). Briefly: Inhibitory activity against Escherichia coli DNA gyrase. The format is protein-complex assay.
Experiment [1] concerns Staphylococcus aureus. Briefly: Inhibitory activity against Staphylococcus aureus FDA 209P. The format is functional. The conditions noted are these: Staphylococcus aureus; read-out: MIC.
The subject of experiment [2] is Enterococcus faecalis. Kind of experiment: Inhibitory activity against Enterococcus faecalis KU 1777. The format is functional. The conditions noted are these: Enterococcus faecalis; read-out: MIC.
For experiment [3], the system named is Staphylococcus aureus. Kind of experiment: Inhibitory activity against Staphylococcus aureus KMP9. The format is functional. The conditions noted are these: Staphylococcus aureus; read-out: MIC.
For experiment [4], the system named is Enterococcus faecalis. Briefly: Inhibitory activity against Enterococcus faecalis ATCC 29212. The format is functional. To be noted: Enterococcus faecalis, ATCC 29212; read-out: MIC.
Experiment [5] has as its target T1, DNA topoisomerase II (Homo sapiens, UniProt P11388+Q02880). Kind of experiment: Inhibitory activity against human DNA topoisomerase II. The format is protein assay.
In experiment [6] the test system is Nucleic Acid. Kind of experiment: Inhibitory activity against Escherichia coli DNA topoisomerase IV. The format is nucleic-acid assay.
Experiment [7] has as its target T1, DNA topoisomerase II. Briefly: Human DNA topoisomerase II relaxation activity was determined. The format is protein assay.
Experiment [8] has as its system Nucleic Acid. Kind of experiment: Escherichia coli DNA topoisomerase IV decatenation activity was determined. The format is nucleic-acid assay.

On to `CCOC(=O)CCCNc1[nH]nc2cccc(OCc3ccc(C(C)(C)C)cc3)c12`, for which half-maximal inhibition against DNA gyrase (IC50) was put at 39.1 µM. For the same compound, the minimal inhibitory concentration (MIC) in the experiment on Staphylococcus aureus [1], in the experiment with Enterococcus faecalis [2], in the experiment with Staphylococcus aureus [3] and with Enterococcus faecalis [4] was 16 µg/mL (≈ 39.1 µM) in each case.

On to `COC(=O)C1CCN(Cc2n[nH]c3cccc(OCc4ccc(C(C)(C)C)cc4)c23)CC1`, for which the IC50 at DNA gyrase was 36.7 µM. Moreover, the minimal inhibitory concentration (MIC) with Staphylococcus aureus [1], in the experiment on Enterococcus faecalis [2], in the experiment with Staphylococcus aureus [3] and with Enterococcus faecalis [4] was 32 µg/mL (≈ 73.5 µM) each time.

With `COC(=O)[C@@H]1C[C@@H](NCc2n[nH]c3cccc(OCc4ccc(C(C)(C)C)cc4)c23)CN1`, the IC50 at DNA gyrase is 18.3 µM. Besides, the minimum inhibitory concentration (MIC) in the experiment on Staphylococcus aureus [1] was found to be 64 µg/mL (≈ 147 µM); in the experiment with Enterococcus faecalis [2], 64 µg/mL (≈ 147 µM); in the experiment on Staphylococcus aureus [3], 128 µg/mL (≈ 293 µM); in the experiment with Enterococcus faecalis [4] it was 128 µg/mL (≈ 293 µM).

`CC(C)(C)c1ccc(COc2cccc3[nH]nc(CN[C@H]4CN[C@H](CO)C4)c23)cc1` showed an IC50 against DNA gyrase of 78.3 µM. The MIC was determined as 32 µg/mL (≈ 78.3 µM) in the experiment with Staphylococcus aureus [1], 32 µg/mL (≈ 78.3 µM) in the experiment with Enterococcus faecalis [2], 64 µg/mL (≈ 157 µM) in the experiment on Staphylococcus aureus [3] and 64 µg/mL (≈ 157 µM) in the experiment on Enterococcus faecalis [4].

Regarding `COC(=O)C1CCCC(Nc2[nH]nc3cccc(OCc4ccccc4)c23)C1` (stereo not given), at DNA gyrase, the IC50 is 21.1 µM. Moreover, the minimal inhibitory concentration (MIC) in the experiment with Staphylococcus aureus [1], with Enterococcus faecalis [2], in the experiment on Staphylococcus aureus [3] and in the experiment on Enterococcus faecalis [4] was 64 µg/mL (≈ 169 µM) throughout.

Consider `CNCc1n[nH]c2cccc(OCc3ccc(C(C)(C)C)cc3)c12`, for which, at DNA gyrase, half-maximal inhibition (IC50) was put at 198 µM. In addition, the minimal inhibitory concentration (MIC) in the experiment on Staphylococcus aureus [1] stood at 32 µg/mL (≈ 98.9 µM); in the experiment with Enterococcus faecalis [2], 16 µg/mL (≈ 49.5 µM); in the experiment with Staphylococcus aureus [3], 64 µg/mL (≈ 198 µM); in the experiment with Enterococcus faecalis [4] it was 32 µg/mL (≈ 98.9 µM).

For the compound `c1ccc(COc2ccc(-c3cc(C4CCNCC4)[nH]n3)cc2)cc1`, the figures for the 50% inhibitory concentration (IC50) on DNA gyrase, at DNA topoisomerase II [5] and in the experiment on Nucleic Acid [6] were 384 µM, 200 µg/mL (≈ 600 µM) and 128 µg/mL (≈ 384 µM), respectively. Further, the MIC in the experiment with Staphylococcus aureus [1], with Enterococcus faecalis [2], in the experiment with Staphylococcus aureus [3] and in the experiment on Enterococcus faecalis [4] was 64 µg/mL (≈ 192 µM) in each case.

As for `COC(=O)[C@@H]1C[C@H](NCc2n[nH]c3cccc(OCc4ccc(C(C)(C)C)cc4)c23)CN1`, on DNA gyrase, the IC50 is 18.3 µM. For the same compound, the MIC with Staphylococcus aureus [1], in the experiment on Enterococcus faecalis [2], in the experiment on Staphylococcus aureus [3] and in the experiment on Enterococcus faecalis [4] was 64 µg/mL (≈ 147 µM) in each case.

As for `Cc1cc(=O)oc2cc(CCc3n[nH]c4cccc(OCc5ccc(C(C)(C)C)cc5)c34)ccc12`, the 50% inhibitory concentration (IC50) at DNA gyrase is 0.536 µM; at DNA topoisomerase II [5], over 400 µg/mL; in the experiment with Nucleic Acid [6], over 128 µg/mL. Further, the minimal inhibitory concentration (MIC) in the experiment on Staphylococcus aureus [1], in the experiment with Enterococcus faecalis [2], with Staphylococcus aureus [3] and in the experiment with Enterococcus faecalis [4] was over 128 µg/mL in each case.

For `COC(=O)C1CCCC(Nc2[nH]nc3cccc(OCc4ccc(F)c(F)c4)c23)C1` (stereo not given), the IC50 on DNA gyrase is 38.5 µM. The MIC with Staphylococcus aureus [1], in the experiment on Enterococcus faecalis [2], with Staphylococcus aureus [3] and in the experiment with Enterococcus faecalis [4] was 128 µg/mL (≈ 308 µM) throughout.

As for `COC(=O)C1CN(Cc2n[nH]c3cccc(OCc4ccc(C(C)(C)C)cc4)c23)CCC1=O` (stereo not given), on DNA gyrase, the IC50 was 8.9 µM. Besides, the MIC with Staphylococcus aureus [1], with Enterococcus faecalis [2], in the experiment with Staphylococcus aureus [3] and in the experiment with Enterococcus faecalis [4] was over 128 µg/mL in each case.

Regarding `COC(=O)C1CCCC(NCc2n[nH]c3cccc(OCc4ccc(C(C)(C)C)cc4)c23)C1` (stereo not given), the figures for the IC50 at DNA gyrase, against DNA topoisomerase II [7] and with Nucleic Acid [8] were 8.9 µM, over 400 µg/mL and over 128 µg/mL, respectively. Further, the minimal inhibitory concentration (MIC) is 4 µg/mL (≈ 8.9 µM) with Staphylococcus aureus [1], 4 µg/mL (≈ 8.9 µM) in the experiment on Enterococcus faecalis [2], 4 µg/mL (≈ 8.9 µM) in the experiment with Staphylococcus aureus [3] and 8 µg/mL (≈ 17.8 µM) in the experiment on Enterococcus faecalis [4].

Take `Clc1cccc(-n2nc(C3CCNCC3)cc2/C=C/c2c[nH]c3ccc(Cl)cc23)c1`: the IC50 is 32 µM at DNA gyrase, over 400 µg/mL on DNA topoisomerase II [7] and 8 µg/mL (≈ 18.3 µM) in the experiment on Nucleic Acid [8]. In addition, the minimum inhibitory concentration (MIC) was determined as 1 µg/mL (≈ 2.29 µM) in the experiment with Staphylococcus aureus [1], 2 µg/mL (≈ 4.57 µM) with Enterococcus faecalis [2], 1 µg/mL (≈ 2.29 µM) in the experiment on Staphylococcus aureus [3] and 2 µg/mL (≈ 4.57 µM) in the experiment with Enterococcus faecalis [4].

Consider `Cn1cc(/C=C/c2cc(C3CCNCC3)nn2-c2cccc(Cl)c2)c2cc(Cl)ccc21`, for which the IC50 on DNA gyrase is 31 µM; at DNA topoisomerase II [7], over 400 µg/mL; with Nucleic Acid [8] it was 8 µg/mL (≈ 17.7 µM). Further, the MIC in the experiment with Staphylococcus aureus [1] was determined as 1 µg/mL (≈ 2.22 µM); in the experiment with Enterococcus faecalis [2], 2 µg/mL (≈ 4.43 µM); in the experiment with Staphylococcus aureus [3], 1 µg/mL (≈ 2.22 µM); in the experiment on Enterococcus faecalis [4] it was 2 µg/mL (≈ 4.43 µM).

In turn, `CC(C)(C)c1ccc(COc2cccc3[nH]nc(NCCCC(=O)O)c23)cc1` had a 50% inhibitory concentration (IC50) at DNA gyrase of 83.9 µM. For the same compound, the minimal inhibitory concentration (MIC) in the experiment with Staphylococcus aureus [1], in the experiment with Enterococcus faecalis [2], in the experiment with Staphylococcus aureus [3] and in the experiment with Enterococcus faecalis [4] was over 128 µg/mL in each case.
